In patent publication US9028856B2, “Synergistic pesticide compositions” (priority 2008, dated 2015):
Marks after values point to notes of the source that are not given here.

What was measured:
[1] = system: bedbug (Cimex lectularius), susceptible strain; assay: Contact efficacy against bedbugs on filter papers in glass dishes; type: in vivo
Experimental: (§1) Adult Cimex lectularius, susceptible strain, were used. A solution of the active ingredient in acetone was prepared. In the same mode a complete […]. All these works were done under drawing off conditions. After evaporation of the acetone (30′) the dishes were closed by a glass lid and transferred into the test room.
(§2) One day later ten bedbugs, anaesthetized with CO2, were counted into each dish. At regular intervals, knock down was recorded (cumulatively).
(§3) The same methodology was used as was used in Example 105.

[2] = system: bedbug (Cimex lectularius); assay: Contact efficacy against bedbugs on various surfaces (wood, PVC, wallpaper, mattress, glass); type: in vivo; settings: for efficacy on wood, PVC, wallpaper, mattress and glass (summary in words): Example 106, imidacloprid 0.008% or 0.0016% (30 and 6 mg a.i./m^2)
Experimental: as §1, §2, §3

[3] = 0.00032% imidacloprid (1 mg/m^2) in acetone, filter papers, Table 105
[4] = 0.0016% Imidacloprid in acetone, first test
[5] = 0.0016% Imidacloprid in acetone, second test
[6] = 0.0016% imidacloprid (6 mg/m^2) in acetone, filter papers, Table 105
[7] = 0.008% Imidacloprid in acetone, first test
[8] = 0.008% Imidacloprid in acetone, second test
[9] = Glass, 0.008% imidacloprid (30 mg/m^2) in acetone
[10] = Mattress, 0.0016% imidacloprid (6 mg/m^2) in acetone

SMILES: O=[N+]([O-])NC1=NCCN1Cc1ccc(Cl)nc1 [imidacloprid]
- % knock down or moribund after 1 h [1, 3]: 0%
- % knock down or moribund after 2 h [1, 3]: 0%
- % knock down or moribund after 4 h [1, 3]: 0%
- % knock down or moribund after 6 h [1, 3]: 0%
- % knock down or moribund after 1 d [1, 3]: 0%
- % knock down or moribund after 2 d [1, 3]: 0%
- % knock down or moribund after 6 d [1, 3]: 0%
- % knock down or moribund after 1 h [1, 4]: 0%
- % knock down or moribund after 2 h [1, 4]: 0%
- % knock down or moribund after 4 h [1, 4]: 0%
- % knock down or moribund after 6 h [1, 4]: 10%
- % knock down or moribund after 1 d [1, 4]: 20%
- % knock down or moribund after 2 d [1, 4]: 20%
- % knock down or moribund after 6 d [1, 4]: 40%
- % knock down or moribund after 1 h [1, 5]: 0%
- % knock down or moribund after 2 h [1, 5]: 0%
- % knock down or moribund after 4 h [1, 5]: 0%
- % knock down or moribund after 6 h [1, 5]: 0%
- % knock down or moribund after 1 d [1, 5]: 0%
- % knock down or moribund after 2 d [1, 5]: 0%
- % knock down or moribund after 6 d [1, 5]: 0%
- % knock down or moribund after 1 h [1, 6]: 0%
- % knock down or moribund after 2 h [1, 6]: 0%
- % knock down or moribund after 4 h [1, 6]: 0%
- % knock down or moribund after 6 h [1, 6]: 0%
- % knock down or moribund after 1 d [1, 6]: 0%
- % knock down or moribund after 2 d [1, 6]: 0%
- % knock down or moribund after 6 d [1, 6]: 0%
- % knock down or moribund after 1 h [1, 7]: 0%
- % knock down or moribund after 2 h [1, 7]: 0%
- % knock down or moribund after 4 h [1, 7]: 0%
- % knock down or moribund after 6 h [1, 7]: 20%
- % knock down or moribund after 1 d [1, 7]: 30%
- % knock down or moribund after 2 d [1, 7]: 40%
- % knock down or moribund after 6 d [1, 7]: 80%
- % knock down or moribund after 1 h [1, 8]: 0%
- % knock down or moribund after 2 h [1, 8]: 0%
- % knock down or moribund after 4 h [1, 8]: 0%
- % knock down or moribund after 6 h [1, 8]: 0%
- % knock down or moribund after 1 d [1, 8]: 0%
- % knock down or moribund after 2 d [1, 8]: 0%
- % knock down or moribund after 6 d [1, 8]: 10%
- efficacy after 6 days ([1]; Example 106, filter paper, concentrations in the label): 0%
- efficacy on wood, PVC, wallpaper, mattress and glass (summary in words) [2]: No efficacy was found on wood, PVC, wallpaper and mattress
- efficacy on wood, PVC, wallpaper, mattress and glass (summary in words) ([2]; listed as 0.008% imidacloprid): On glass, 0.008% imidacloprid alone acted relatively fast and had killed all bed bugs within one day
- % knock down or moribund after 1 h [2, 9]: 0%
- % knock down or moribund after 2 h [2, 9]: 100* %
- % knock down or moribund after 4 h [2, 9]: 85%
- % knock down or moribund after 6 h [2, 9]: 90%
- % knock down or moribund after 1 d [2, 9]: 100%
- % knock down or moribund after 2 d [2, 9]: 100%
- % knock down or moribund after 6 d [2, 9]: 100%
- % knock down or moribund after 1 h [2, 10]: 0%
- % knock down or moribund after 2 h [2, 10]: 0%
- % knock down or moribund after 4 h [2, 10]: 0%
- % knock down or moribund after 6 h [2, 10]: 0%
- % knock down or moribund after 1 d [2, 10]: 0%
- % knock down or moribund after 2 d [2, 10]: 0%
- % knock down or moribund after 6 d [2, 10]: 0%
- % knock down or moribund after 1 h ([2]; Mattress, 0.008% imidacloprid (30 mg/m^2) in acetone): 0%
